Each structure is given as a SMILES string. ≈ marks a conversion by molar mass, not a printed value. Calls of active or inactive are those of the source. The rule behind the calls is not given here.

The values that follow come from ChEMBL document CHEMBL1150747, “Isolation of deoxyshikonin, an antidermatophytic principle from Lithospermum erythrorhizon cell cultures” (1988).

One test concerns Trichophyton rubrum. As to the kind of experiment: Antimicrobial activity against Trichophyton rubrum IFO 5808 after 7 days by agar dilution streak method. The conditions noted are these: IFO 5808, 168 h. In kind it is functional.
Another test has as its system Candida albicans. The test is described as follows: Antimicrobial activity against Candida albicans IFO 0197 at 200 ug/mL after 7 days by paper disk method. Format: functional, organism-based.
Test [1] concerns Trichophyton tonsurans var. sulfureum. The test is described as follows: Antimicrobial activity against Trichophyton tonsurans var. sulfureum IFO 5945 after 7 days by agar dilution streak method. In kind it is functional. The conditions noted are these: IFO 5945, 168 h.
The subject of another test is Serratia marcescens. The test is described as follows: Antimicrobial activity against Serratia marcescens IFO 12648 at 200 ug/mL after 24 hrs by paper disk method. Format: functional, organism-based.
The test system of a further test is Micrococcus luteus. The test is described as follows: Antimicrobial activity against Micrococcus luteus IFO 12708 after 24 hrs by agar dilution streak method. In kind it is functional. As to conditions: IFO 12708, 24 h.
The test system of the next test is Saccharomyces. The test is described as follows: Antimicrobial activity against Saccharomyces sake IFO 0305 after 7 days by agar dilution streak method. Format: functional. The conditions noted are these: IFO 0305, 168 h.
In the next test the test system is Bacillus subtilis. The test is described as follows: Antimicrobial activity against Bacillus subtilis PCI 219 IFO 3513 after 24 hrs by agar dilution streak method. Format: functional. As to conditions: PCI 219 IFO 3513, 24 h. A general note: Agar dilution tests growth on a series of plates holding different concentrations.
Another test concerns Kocuria rosea. As to the kind of experiment: Antimicrobial activity against Micrococcus roseus IFO 3764 after 24 hrs by agar dilution streak method. Format: functional. The conditions noted are these: IFO 3764, 24 h.
For test [2], the system named is Meyerozyma guilliermondii. The test is described as follows: Antimicrobial activity against Candida guilliermondii IFO 0454 at 200 ug/mL after 7 days by paper disk method. Format: functional, organism-based.
The test system of test [3] is Trichophyton mentagrophytes. The test is described as follows: Antimicrobial activity against Trichophyton mentagrophytes IFO 5809 after 7 days by agar dilution streak method. Format: functional. The conditions noted are these: IFO 5809, 168 h.
A further test relates to Pichia norvegensis. As to the kind of experiment: Antimicrobial activity against Candida mycoderma IFO 0162 at 200 ug/mL after 7 days by paper disk method. In kind it is functional, organism-based.
For another test, the system named is Staphylococcus aureus. The test is described as follows: Antimicrobial activity against Staphylococcus aureus 209P IFO 12732 after 24 hrs by agar dilution streak method. Format: functional. As to conditions: 209P IFO 12732, 24 h.
For the next test, the system named is Nannizzia gypsea. The test is described as follows: Antimicrobial activity against Microsporum gypseum IFO 8307 after 7 days by agar dilution streak method. Format: functional. As to conditions: IFO 8307, 168 h.
The subject of another test is Pseudomonas aeruginosa. The test is described as follows: Antimicrobial activity against Pseudomonas aeruginosa IFO 12689 at 200 ug/mL after 24 hrs by paper disk method. In kind it is functional, organism-based.
A further test relates to Escherichia coli. As to the kind of experiment: Antimicrobial activity against Escherichia coli NIHJ IFO 12734 at 200 ug/mL after 24 hrs by paper disk method. In kind it is functional, organism-based.
Test [4] has as its system Trichophyton mentagrophytes. As to the kind of experiment: Fungistatic activity against Trichophyton mentagrophytes IFO 5809 at 100 ug/mL after 7 days by liquid dilution method. In kind it is functional, organism-based.
For the next test, the system named is Candida tropicalis. The test is described as follows: Antimicrobial activity against Candida tropicalis IFO 0006 at 200 ug/mL after 7 days by paper disk method. Format: functional, organism-based.
In the next test the test system is Cyberlindnera jadinii. As to the kind of experiment: Antimicrobial activity against Candida utilis […] at 200 ug/mL after 7 days by paper disk method. In kind it is functional, organism-based.
A further test relates to Epidermophyton floccosum. The test is described as follows: Antimicrobial activity against Epidermophyton floccosum IFO 9045 after 7 days by agar dilution streak method. Format: functional. The conditions noted are these: IFO 9045, 168 h.

By MIC is commonly meant the least concentration at which growth counts as inhibited. The low end stands for greater potency, the high end for weaker potency. Consider `CC(C)=CCCC1=CC(=O)c2c(O)ccc(O)c2C1=O` [DEOXYSHIKONIN], for which the MIC in the test on Trichophyton rubrum amounted to 25 µg/mL (≈ 91.8 µM); in test [1], 12.5 µg/mL (≈ 45.9 µM); with Micrococcus luteus, 50 µg/mL (≈ 184 µM); against Saccharomyces, 6.2 µg/mL (≈ 22.8 µM); in the test with Bacillus subtilis, 200 µg/mL (≈ 734 µM); against Kocuria rosea, 100 µg/mL (≈ 367 µM). For the same compound, the MIC in test [3] came to 12.5 µg/mL (≈ 45.9 µM); with Staphylococcus aureus it was 200 µg/mL (≈ 734 µM); in the test with Nannizzia gypsea, 6.2 µg/mL (≈ 22.8 µM); against Epidermophyton floccosum it was 6.2 µg/mL (≈ 22.8 µM). Further, the outcome (in the test with Candida albicans; in the test on Serratia marcescens; in [2]; with Pichia norvegensis; in the test with Pseudomonas aeruginosa; in the test with Escherichia coli) was inactive. For the same compound, the result (in test [4]; with Candida tropicalis; with Cyberlindnera jadinii) was inactive.
Turning to `O=C(N[C@H](CO)[C@H](O)c1ccc([N+](=O)[O-])cc1)C(Cl)Cl` [CHLORAMPHENICOL], the MIC was 6.2 µg/mL (≈ 19.2 µM) against Micrococcus luteus; > 200 µg/mL with Saccharomyces; 6.2 µg/mL (≈ 19.2 µM) with Bacillus subtilis; 25 µg/mL (≈ 77.4 µM) with Kocuria rosea; 12.5 µg/mL (≈ 38.7 µM) in the test on Staphylococcus aureus.
On to `COC1=CC(=O)C[C@@H](C)[C@]12Oc1c(Cl)c(OC)cc(OC)c1C2=O` [GRISEOFULVIN], for which the MIC in the test on Trichophyton rubrum is 3.1 µg/mL (≈ 8.79 µM); in test [1] it was 3.1 µg/mL (≈ 8.79 µM); in test [3], 3.1 µg/mL (≈ 8.79 µM); against Nannizzia gypsea, 1.5 µg/mL (≈ 4.25 µM); in the test on Epidermophyton floccosum, 1.5 µg/mL (≈ 4.25 µM).
`CC(C)=CC[C@@H](O)C1=CC(=O)c2c(O)ccc(O)c2C1=O` [SHIKONIN]: the MIC is 25 µg/mL (≈ 86.7 µM) in the test with Trichophyton rubrum; 25 µg/mL (≈ 86.7 µM) in [1]; 100 µg/mL (≈ 347 µM) in the test on Micrococcus luteus; 3.1 µg/mL (≈ 10.8 µM) against Saccharomyces; > 200 µg/mL against Bacillus subtilis; 200 µg/mL (≈ 694 µM) with Kocuria rosea. The minimum inhibitory concentration (MIC) in test [3] is 25 µg/mL (≈ 86.7 µM); with Staphylococcus aureus, > 200 µg/mL; against Nannizzia gypsea, 12.5 µg/mL (≈ 43.4 µM); in the test on Epidermophyton floccosum it was 6.2 µg/mL (≈ 21.5 µM). The outcome (with Candida albicans; in the test with Serratia marcescens; in [2]; in the test on Pichia norvegensis; in the test on Pseudomonas aeruginosa; in the test with Escherichia coli) was inactive. The result with Candida tropicalis and in the test with Cyberlindnera jadinii was inactive.
